Reference: patent publication US20250195536A1, “BICYCLOOCTANE KRAS INHIBITORS” (Incyte Corporation, priority 2023, published 2025)

Experiments:
KRAS G12V = KRAS G12V (Homo sapiens, UniProt P01116, G12V); experiment: GDP-GTP exchange assay (KRAS G12V); format: biochemical; details: bodipy-GDP/GppNHp exchange with SOS1; 3 h incubation after GppNHp-SOS1;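 further: one dagger IC50 up to 100 nM and two daggers above 100 nM up to 1 μM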
In short: (§1)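 IC50 came from a four-parameter fit of fluorescence loss (485/520 nm) as SOS1 (150 nM) swapped bodipy-GDP for GppNHp (500 μM) on 2.5 nM KRAS, final concentrations. Compounds were pre-incubated 4 h at r.t. (pH 7.5 Hepes, 10 mM MgCl2); exchange ran 2 h (G12D) or 3 h (G12V).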

[1] = Caco2 assay (permeability, Papp A-B); format: in vitro ADME; details: human, Caco-2, absorptive direction (A-B), 50 μM test compound, 4% BSA in receiver
In short: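 Absorptive (A-B) Papp: 50 μM test compound in HBSS added to apical side of 22-25-day Caco-2 monolayers (TEER 300 Ω·cm^2), receiver buffer containing 4% BSA. After 120 min at 37 °C, 5% CO2, both sides analysed by LCMS; Papp calculated from flux rate normalized to area and donor amount.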

KRAS G12D = KRAS G12D (Homo sapiens, UniProt P01116, G12D); experiment: GDP-GTP exchange assay (KRAS G12D); format: biochemical; details: bodipy-GDP/GppNHp exchange with SOS1; 4 h pre-incubation, 2 h reaction;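 further: one dagger IC50 up to 100 nM and two daggers above 100 nM up to 1 μM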
Chain of KRAS G12D (P01116 1-188 isoform P01116-2 G12D): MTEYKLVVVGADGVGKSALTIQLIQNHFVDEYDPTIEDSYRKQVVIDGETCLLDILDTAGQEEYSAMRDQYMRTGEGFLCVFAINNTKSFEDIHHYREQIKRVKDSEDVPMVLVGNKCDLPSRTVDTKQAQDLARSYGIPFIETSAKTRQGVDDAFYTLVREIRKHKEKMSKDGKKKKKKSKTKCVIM
In short: as §1

Chain of KRAS G12V (P01116 1-188 isoform P01116-2 G12V): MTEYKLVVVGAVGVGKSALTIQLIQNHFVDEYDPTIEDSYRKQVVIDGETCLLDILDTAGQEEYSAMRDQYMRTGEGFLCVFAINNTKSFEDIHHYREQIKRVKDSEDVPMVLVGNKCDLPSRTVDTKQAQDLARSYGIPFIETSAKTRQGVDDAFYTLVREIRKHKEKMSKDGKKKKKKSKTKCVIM

## Cc1nc2c(F)c(-c3cccc(Cl)c3Cl)c(CCC#N)cc2c2c1cc([C@H]1[C@H]3C[C@H](CN(c4cc(C(F)F)ccn4)C3)N1C(=O)C1CC1)n2[C@H]1[C@H]2CN[C@@H]1C2 (atropisomer, axis not shown; (Ra)) [Example 89, 3-((Ra)-1-((1R,4R,5S)-2-azabicyclo[2.1.1]hexan-5-yl)-2-((1S,5R,7R)-6-(cyclopropanecarbonyl)-3-(4-(difluoromethyl)pyridin-2-yl)-3,6-diazabicyclo[3.2.1]octan-7-yl)-7-(2,3-dichlorophenyl)-6-fluoro-4-methyl-1H-pyrrolo[3,2-c]quinolin-8-yl)propanenitrile]
KRAS G12V
  G12V_exchange (KRAS_G12V exchange assay IC50): †
[1]
  Papp A→B at 120 min, 50 μM: ≤ 0.5 ×10⁻⁶ cm/s
KRAS G12D
  G12D_exchange (KRAS_G12D exchange assay IC50): †

## Cc1nc2c(F)c(-c3cccc(Cl)c3Cl)c(CCC#N)cc2c2c1cc([C@H]1[C@H]3C[C@H](CN(c4cscn4)C3)N1C(=O)C1CC1)n2[C@H]1[C@H]2CN[C@@H]1C2 (atropisomer, axis not shown; (Ra)) [Example 93, 3-((Ra)-1-((1R,4R,5S)-2-azabicyclo[2.1.1]hexan-5-yl)-2-((1S,5R,7R)-6-(cyclopropanecarbonyl)-3-(thiazol-4-yl)-3,6-diazabicyclo[3.2.1]octan-7-yl)-7-(2,3-dichlorophenyl)-6-fluoro-4-methyl-1H-pyrrolo[3,2-c]quinolin-8-yl)propanenitrile]
KRAS G12V
  G12V_exchange (KRAS_G12V exchange assay IC50): †
[1]
  Papp A→B at 120 min, 50 μM: ≤ 0.5 ×10⁻⁶ cm/s
KRAS G12D
  G12D_exchange (KRAS_G12D exchange assay IC50): †

## Cc1nc2c(F)c(-c3cccc(Cl)c3Cl)c(CCC#N)cc2c2c1cc(C1C3CC(CN(C4CCCCC4)C3=O)N1C(=O)C1CC1)n2C1C2CNC1C2 (atropisomer, axis not shown; (Ra)) [Example 113, 3-((Ra)-1-((1R,4R,5S)-2-Azabicyclo[2.1.1]hexan-5-yl)-2-((1R,5R,7R)-3-cyclohexyl-6-(cyclopropanecarbonyl)-2-oxo-3,6-diazabicyclo[3.2.1]octan-7-yl)-7-(2,3-dichlorophenyl)-6-fluoro-4-methyl-1H-pyrrolo[3,2-c]quinolin-8-yl)propanenitrile]
KRAS G12V
  G12V_exchange (KRAS_G12V exchange assay IC50): †
[1]
  Papp A→B at 120 min, 50 μM: ≤ 0.5 ×10⁻⁶ cm/s
KRAS G12D
  G12D_exchange (KRAS_G12D exchange assay IC50): †††

## Cc1nc2c(F)c(-c3cccc(Cl)c3Cl)c(CCC#N)cc2c2c1cc([C@H]1[C@H]3C[C@H](CN(c4ccn5ncnc5c4)C3)N1C(=O)C1CC1)n2[C@H]1[C@H]2CN[C@@H]1C2 (atropisomer, axis not shown; (Ra)) [Example 72, 3-((Ra)-2-((1S,5R,7R)-3-([1,2,4]triazolo[1,5-a]pyridin-7-yl)-6-(cyclopropanecarbonyl)-3,6-diazabicyclo[3.2.1]octan-7-yl)-1-((1R,4R,5S)-2-azabicyclo[2.1.1]hexan-5-yl)-7-(2,3-dichlorophenyl)-6-fluoro-4-methyl-1H-pyrrolo[3,2-c]quinolin-8-yl) propanenitrile]
KRAS G12V
  G12V_exchange (KRAS_G12V exchange assay IC50): †
[1]
  Papp A→B at 120 min, 50 μM: ≤ 0.5 ×10⁻⁶ cm/s
KRAS G12D
  G12D_exchange (KRAS_G12D exchange assay IC50): †

## Cc1nc2c(F)c(-c3cccc(Cl)c3Cl)c(CCC#N)cc2c2c1cc([C@H]1C[C@H]3C[C@H](CN3c3ccccn3)N1C(=O)C1CC1)n2[C@H]1[C@H]2CN[C@@H]1C2 (atropisomer, axis not shown; (Ra)) [Example 118, 3-((Ra)-1-((1R,4R,5S)-2-Azabicyclo[2.1.1]hexan-5-yl)-2-((1R,3R,5R)-2-(cyclopropanecarbonyl)-6-(pyridin-2-yl)-2,6-diazabicyclo[3.2.1]octan-3-yl)-7-(2,3-dichlorophenyl)-6-fluoro-4-methyl-1H-pyrrolo[3,2-c]quinolin-8-yl)propanenitrile]
KRAS G12V
  G12V_exchange (KRAS_G12V exchange assay IC50): †
[1]
  Papp A→B at 120 min, 50 μM: ≤ 0.5 ×10⁻⁶ cm/s
KRAS G12D
  G12D_exchange (KRAS_G12D exchange assay IC50): †

## COc1ccc(N2C[C@@H]3C[C@H](C2)N(C(=O)C2CC2)[C@H]3c2cc3c(C)nc4c(F)c(-c5cccc(Cl)c5Cl)c(CCC#N)cc4c3n2[C@H]2[C@H]3CN[C@@H]2C3)cn1 (atropisomer, axis not shown; (Ra)) [Example 24, 3-((Ra)-1-((1R,4R,5S)-2-azabicyclo[2.1.1]hexan-5-yl)-2-((1S,5R,7R)-6-(cyclopropanecarbonyl)-3-(6-methoxypyridin-3-yl)-3,6-diazabicyclo[3.2.1]octan-7-yl)-7-(2,3-dichlorophenyl)-6-fluoro-4-methyl-1H-pyrrolo[3,2-c]quinolin-8-yl)propanenitrile]
KRAS G12V
  G12V_exchange (KRAS_G12V exchange assay IC50): †
[1]
  Papp A→B at 120 min, 50 μM: ≤ 0.5 ×10⁻⁶ cm/s
KRAS G12D
  G12D_exchange (KRAS_G12D exchange assay IC50): ††

## Cc1nc2c(F)c(-c3cccc(Cl)c3Cl)c(CCC#N)cc2c2c1cc([C@H]1C[C@H]3C[C@H](CN3C(=O)c3ccccc3)N1C(=O)C1CC1)n2[C@H]1[C@H]2CN[C@@H]1C2 (atropisomer, axis not shown; (Ra)) [Example 119, 3-((Ra)-2-((1R,3R,5R)-6-Benzoyl-2-(cyclopropanecarbonyl)-2,6-diazabicyclo[3.2.1]octan-3-yl)-1-((1R,4R,5S)-2-azabicyclo[2.1.1]hexan-5-yl)-7-(2,3-dichlorophenyl)-6-fluoro-4-methyl-1H-pyrrolo[3,2-c]quinolin-8-yl)propanenitrile]
KRAS G12V
  G12V_exchange (KRAS_G12V exchange assay IC50): †
[1]
  Papp A→B at 120 min, 50 μM: ≤ 0.5 ×10⁻⁶ cm/s
KRAS G12D
  G12D_exchange (KRAS_G12D exchange assay IC50): †

## COc1cc(N2C[C@@H]3C[C@H](C2)N(C(=O)C2CC2)[C@H]3c2cc3c(C)nc4c(F)c(-c5cccc(Cl)c5Cl)c(CCC#N)cc4c3n2[C@H]2[C@H]3CN[C@@H]2C3)cc(C)n1 (atropisomer, axis not shown; (Ra)) [Example 78, 3-((Ra)-1-((1R,4R,5S)-2-azabicyclo[2.1.1]hexan-5-yl)-2-((1S,5R,7R)-6-(cyclopropanecarbonyl)-3-(2-methoxy-6-methylpyridin-4-yl)-3,6-diazabicyclo[3.2.1]octan-7-yl)-7-(2,3-dichlorophenyl)-6-fluoro-4-methyl-1H-pyrrolo[3,2-c]quinolin-8-yl)propanenitrile]
KRAS G12V
  G12V_exchange (KRAS_G12V exchange assay IC50): †
[1]
  Papp A→B at 120 min, 50 μM: ≤ 0.5 ×10⁻⁶ cm/s
KRAS G12D
  G12D_exchange (KRAS_G12D exchange assay IC50): †

## Cc1nc2c(F)c(-c3cccc(Cl)c3Cl)c(CCC#N)cc2c2c1cc([C@H]1[C@H]3C[C@H](CN(c4ncc(C5CC5)s4)C3)N1C(=O)C1CC1)n2[C@H]1[C@H]2CN[C@@H]1C2 (atropisomer, axis not shown; (Ra)) [Example 106, 3-((Ra)-1-((1R,4R,5S)-2-azabicyclo[2.1.1]hexan-5-yl)-2-((1S,5R,7R)-6-(cyclopropanecarbonyl)-3-(5-cyclopropylthiazol-2-yl)-3,6-diazabicyclo[3.2.1]octan-7-yl)-7-(2,3-dichlorophenyl)-6-fluoro-4-methyl-1H-pyrrolo[3,2-c]quinolin-8-yl)propanenitrile]
KRAS G12V
  G12V_exchange (KRAS_G12V exchange assay IC50): †
[1]
  Papp A→B at 120 min, 50 μM: ≤ 0.5 ×10⁻⁶ cm/s
KRAS G12D
  G12D_exchange (KRAS_G12D exchange assay IC50): †

## Cc1nc2c(F)c(-c3cccc(Cl)c3Cl)c(CCC#N)cc2c2c1cc([C@H]1[C@H]3C[C@H](CN(c4nccc(C(F)(F)F)n4)C3)N1C(=O)C1CC1)n2[C@H]1[C@H]2CN[C@@H]1C2 (atropisomer, axis not shown; (Ra)) [Example 43, 3-((Ra)-1-((1R,4R,5S)-2-azabicyclo[2.1.1]hexan-5-yl)-2-((1S,5R,7R)-6-(cyclopropanecarbonyl)-3-(4-(trifluoromethyl)pyrimidin-2-yl)-3,6-diazabicyclo[3.2.1]octan-7-yl)-7-(2,3-dichlorophenyl)-6-fluoro-4-methyl-1H-pyrrolo[3,2-c]quinolin-8-yl)propanenitrile]
KRAS G12V
  G12V_exchange (KRAS_G12V exchange assay IC50): †
[1]
  Papp A→B at 120 min, 50 μM: ≤ 0.5 ×10⁻⁶ cm/s
KRAS G12D
  G12D_exchange (KRAS_G12D exchange assay IC50): †

## Cc1nc2c(F)c(-c3cccc(Cl)c3Cl)c(CCC#N)cc2c2c1cc([C@H]1[C@H]3C[C@H](CN(c4cnccn4)C3)N1C(=O)C1CC1)n2[C@H]1[C@H]2CN[C@@H]1C2 (atropisomer, axis not shown; (Ra)) [Example 40, 3-((Ra)-1-((1R,4R,5S)-2-azabicyclo[2.1.1]hexan-5-yl)-2-((1S,5R,7R)-6-(cyclopropanecarbonyl)-3-(pyrazin-2-yl)-3,6-diazabicyclo[3.2.1]octan-7-yl)-7-(2,3-dichlorophenyl)-6-fluoro-4-methyl-1H-pyrrolo[3,2-c]quinolin-8-yl)propanenitrile]
KRAS G12V
  G12V_exchange (KRAS_G12V exchange assay IC50): †
[1]
  Papp A→B at 120 min, 50 μM: ≤ 0.5 ×10⁻⁶ cm/s
KRAS G12D
  G12D_exchange (KRAS_G12D exchange assay IC50): †

## Cc1ccc(F)c(N2C[C@@H]3C[C@H](C2)N(C(=O)C2CC2)[C@H]3c2cc3c(C)nc4c(F)c(-c5cccc(Cl)c5Cl)c(CCC#N)cc4c3n2[C@H]2[C@H]3CN[C@@H]2C3)n1 (atropisomer, axis not shown; (Ra)) [Example 52, 3-((Ra)-1-((1R,4R,5S)-2-azabicyclo[2.1.1]hexan-5-yl)-2-((1S,5R,7R)-6-(cyclopropanecarbonyl)-3-(3-fluoro-6-methylpyridin-2-yl)-3,6-diazabicyclo[3.2.1]octan-7-yl)-7-(2,3-dichlorophenyl)-6-fluoro-4-methyl-1H-pyrrolo[3,2-c]quinolin-8-yl)propanenitrile]
KRAS G12V
  G12V_exchange (KRAS_G12V exchange assay IC50): †
[1]
  Papp A→B at 120 min, 50 μM: 0.5 to 1 ×10⁻⁶ cm/s
KRAS G12D
  G12D_exchange (KRAS_G12D exchange assay IC50): ††
